Laboratory results published in patent US20230128889A1, “REL/RELA/SPOT SMALL MOLECULES MODULATORS AND SCREENING METHODS” (priority 2020, published 2023).
Numbering of substitutions follows the chain as printed. In names and notes the source's numbering stands. Like-named read-outs stand apart in the source and are kept apart here.

B1: R249A D272A: RelTt with substitutions R249A and D272A (protein)
chain: MVGADLGLWNRLEPALAYLAPEERAKVREAYRFAEEAHRGQLRRSGEPYITHPVAVAEILAGLQMDADTVAAGLLHDTVEDCGVAPEELERRFGPTVRRIVEGETKVSKLYKLANLEGEERRAEDLRQMFIAMAEDVRIIIVKLADRLHNLRTLEHMPPEKQKRIAQETLEIYAPLAHRLGMGQLKWELEDLSFRYLHPEAFASLSARIQATQEARERLIQKAIHLLQETLARDELLQSQLQGFEVTGAPKHLYSIWKKMEREGKTLEQIYALLAVRVILDPKPAPTRESQALREKQVCYHVLGLVHALWQPIPGRVKDYIAVPKPNGYQSLHTTVIALEGLPLEVQIRTREMHRVAEYGIAAHWLYKEGLTDPEEVKRRVSWLKSIQEWQKEFSSSREFVEAVTKDLLGGRVFVFTPKGRIINLPKGATPVDFAYHIHTEVGHHMVGAKVNGRIVPLSYELQNGEIVEILTSKNAHPSKGWLEFAKTRSAKSKIRQYFRAQERQETLERGQHLLERYLKRRGLPKPTDSQLEEAAKRLSLPPSPEELYLALALNRLTPRQVAEKLYPKALLKPEKPKPQVRNEWGIRLEQDLQAPIRLASCCEPMKGDPILGFVTRGRGVTVHRADCPNLRRLLQGPEADRVIGAYWEGVGGKVVVLEVLAQDRAGLLRDVMQVVAEAGKSALGSETRVLGPLARIRLRLAVQDGEEERILQAVQKVSGVKEARWA
B2: R249A D272A Y329A: RelTt with substitutions R249A, D272A and Y329A (protein)
chain: B1 chain with Y329A
B3: R249A R277A: RelTt with substitutions R249A and R277A (protein)
chain: B1 chain with A272D, R277A
B4: R249A R277A Y329A: RelTt with substitutions R249A, R277A and Y329A (protein)
chain: B1 chain with A272D, R277A, Y329A

Assays:
[1] = molecular target: RelTt^NTD (Thermus thermophilus, UniProt Q5SHL3); assay: Isothermal Titration Calorimetry (ITC), titration into RelTt^NTD; assay type: binding, T. thermophilus
Method: (§1) To directly address the sequential binding hypothesis, we monitored the binding of these nucleotides using Isothermal Titration Calorimetry (ITC). […] However, once the RelTt^NTD-GDP complex is formed, APCPP binds with an affinity of around 50 μM (FIG. 9h and Table 6). The incorporation of both GDP and APCPP is entropically driven (FIG. 11b and Table 6). In the case of the binding of GDP to the SYN-domain, the release of ordered water molecules from the GDP binding cleft is accompanied by the movement of α6-α7 that partially occludes the HD active center and an increase in the enzyme flexibility as observed in the crystal structure. All these structural changes are consistent with entropically driven binding events. […] In addition, it creates an ‘entropy reservoir’ that drives the binding of APCPP with the release of water molecules from the now exposed binding cleft. This supports the notion that GDP must ‘open’ the enzyme to reveal the ATP binding site, as predicted from the analysis of the crystallographic data.

[2] = molecular target: RelTt^NTD-GDP complex (Thermus thermophilus, UniProt Q5SHL3); assay: ITC, titration into RelTt^NTD-GDP complex; assay type: binding, T. thermophilus
Method: as §1

[3] = molecular target: RelTt^NTD-APCPP complex (Thermus thermophilus, UniProt Q5SHL3); assay: ITC, titration into RelTt^NTD-APCPP complex; assay type: binding, T. thermophilus
Method: as §1

[4] = tested on: Rel hydrolase (HD); assay: Inhibition of Rel hydrolase activity: decrease of radioactive (p)ppGpp spot on TLC; assay type: biochemical; conditions: radioactive (p)ppGpp incubated with enzyme, with vs without compound
Method: (§2) As indicated above, the “Yes/No” in the 5th and 6th columns of TABLES A to F indicates whether there is, or respectively is not an inhibition of the synthetase (ST) and/or hydrolase (HD) activity. […] The action of a candidate compound is evaluated based on its effect on the production of (p)ppGpp. Therefore, in order to assess the potential influence of a candidate compound on synthesis activity, the enzyme was mixed with GDP or GTP and radioactive ATP to produce (p)ppGpp in absence or presence of the candidate compound. Subsequently, the reaction is developed by thin layer chromatography (TLC). In an alternative assay that enables determining the effect of a compound on the hydrolysis activity, radioactive (p)ppGpp is incubated with the enzyme and any decrease of the (p)ppGpp spot on TLC is evaluated when the assay is conducted in presence of the compound and compared to control conditions where no candidate compound is added during incubation.

[5] = tested on: Rel synthetase (ST); assay: Inhibition of Rel synthetase activity: (p)ppGpp production from GDP or GTP and radioactive ATP, TLC; assay type: biochemical; conditions: enzyme with GDP or GTP and radioactive ATP, absence or presence of compound
Method: as §2

[6] = tested on: full-length RelTt; assay: ppGpp synthesis (synthase) activity of full-length RelTt and variants, 3H-labeled GDP; assay type: biochemical, T. thermophilus; design: Synthase activity, Substrate: GDP + ATP, RelTt + IC / Synthase activity, Substrate: GDP + ATP, RelTt + IC + tRNA^Val: unit not given here; conditions: 40° C.; for Synthase activity, Substrate: GDP + ATP, RelTt + IC + tRNA^Val: with 70S IC and deacylated tRNA^Val; for Synthase activity, Substrate: GDP + ATP, RelTt + IC: with T. thermophilus 70S IC
Method: FIG. 1. Biochemical characterization of full-length RelTt. (a) Hydrolysis activity of 100 nM full-length RelTt was assayed in the presence of 0.5 mM 3H-labeled ppGpp substrate either at 4° C. or 40° C. Synthetic activity of 30 nM full-length RelTt was assayed at 40° C. in the presence of either 1 mM ATP (b) or 1 mM APPNP (c), as well 0.3 mM of 3H-labeled GDP and 0.1 mM ppGpp. As indicated on the figure, the reactions were supplemented with 120 nM T. thermophilus 70S IC(MV) added either alone or in combination with 2 μM deacylated E. coli tRNAVal. All experiments were performed in HEPES:Polymix buffer, pH 7.5, 5 mM Mg^2+, either in the presence (a) or absence (b and c) of 0.5 mM Mn^2+. Error bars represent Standard deviations of the turnover estimates by linear regression.

RelTt^NTD, sequence (Q5SHL3 entry or part of it): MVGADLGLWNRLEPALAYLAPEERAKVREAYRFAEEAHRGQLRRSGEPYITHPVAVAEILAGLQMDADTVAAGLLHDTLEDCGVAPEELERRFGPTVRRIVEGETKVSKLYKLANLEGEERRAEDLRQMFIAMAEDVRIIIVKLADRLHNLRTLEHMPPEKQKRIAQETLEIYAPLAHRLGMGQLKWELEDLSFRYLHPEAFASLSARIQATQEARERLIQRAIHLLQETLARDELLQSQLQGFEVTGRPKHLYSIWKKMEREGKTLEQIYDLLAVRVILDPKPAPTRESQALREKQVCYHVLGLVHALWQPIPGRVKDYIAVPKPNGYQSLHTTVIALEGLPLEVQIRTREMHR
RelTt^NTD-APCPP complex, sequence (Q5SHL3 entry or part of it, one chain of several): as the sequence (Q5SHL3 entry or part of it) above
RelTt^NTD-GDP complex, sequence (Q5SHL3 entry or part of it, one chain of several): as the sequence (Q5SHL3 entry or part of it) above

Molecule | HD (inhibition of the hydrolase activity) [4] | ST (inhibition of the synthetase activity) [5] | further results
Nc1ncnc2c1ncn2[C@@H]1O[C@H](COP(=O)(O)CP(=O)(O)OP(=O)(O)O)[C@@H](O)[C@H]1O [APCPP] |  |  | Kd [1]: does not bind; Kd [2]: 50.4 µM; ΔG [2]: -5.67 ± 0.07 kcal/mol; ΔH [2]: 1.8 ± 1 kcal/mol; −TΔS [2]: -7.5 ± 1 kcal/mol
Nc1nc2c(ncn2[C@@H]2O[C@H](COP(=O)(O)OP(=O)(O)O)[C@@H](O)[C@H]2O)c(=O)[nH]1 [GDP] |  |  | ΔG [1]: -6.12 ± 0.01 kcal/mol; ΔH [1]: 1.3 ± 1 kcal/mol; −TΔS [1]: -7.6 ± 1 kcal/mol; Kd ([1]; read-out: Kd): 23 µM; Kd [3]: 24.7 ± 0.9 µM; ΔG [3]: -6.1 ± 0.1 kcal/mol; ΔH [3]: 0.4 ± 1 kcal/mol; −TΔS [3]: -6.5 ± 1 kcal/mol
Cc1c(C(=O)N(CCC(=O)O)CC2CCCO2)sc2ncn(C)c(=O)c12 (stereo not shown) [Compound 53] | Yes | No | 
O=C(O)/C=C/c1cccc(NC2C(=O)Nc3ccccc32)c1 (stereo not shown) [Compound 31] | Yes | No | 
Cn1c(=O)[nH]c(=O)c2[nH]c(SCC(=O)O)nc21 [Compound 52] | Yes | No | 
O=C(O)CCCC(=O)Nc1cc2[nH]c(=O)[nH]c2cc1N1CCCC1 [Compound 35] | yes | no | 
CC(C(=O)O)C(NC(=O)C(C)n1nnc(-c2ccccc2)n1)c1ccccc1 (stereo not shown) [Compound 61] | Yes | No | 
O=[N+]([O-])c1ccc(CSc2nnc(-c3ccccc3F)o2)cc1 [Compound 62] | Yes | No | 
O=C(COc1ccc2ccccc2c1)N1N=C2/C(=C/c3cccc([N+](=O)[O-])c3)CCCC2C1c1cccc([N+](=O)[O-])c1 (stereo not shown) [Compound 8] | Yes | No | 
COc1ccc(C=C2C(=O)Nc3ccc(C(=O)O)cc32)cc1 [Compound 37] | No | Yes | 
CC(Nc1ccc(F)cc1[N+](=O)[O-])c1ccc2[nH]c(=O)[nH]c2c1 (stereo not shown) [Compound 26] | Yes | No | 
Cc1c(Cc2ccccc2)c(=O)oc2cc(OCc3ccc(C(=O)O)cc3)ccc12 [Compound 15] | No | Yes | 
COc1ccc(CC(=O)Nc2ccc(N3CCC(N4CCCCC4)CC3)cc2C(=O)O)cc1 [Compound 73] | Yes | Yes | 
Cc1cc(CCc2nnn[nH]2)c2c(C)c(Cc3ccccc3)c(=O)oc2c1 [Compound 17] | Yes | Yes | 
O=C(O)c1cccc(Nc2ncnc3[nH]cnc23)c1 [Compound 55] | Yes | No | 
Cc1ccc(Nc2nc(N/N=C/c3cc(Cl)ccc3O)nc(Nc3ccc([N+](=O)[O-])cc3)n2)cc1C [Compound 66] | No | Yes | 
O=C(Nc1nnn[nH]1)c1ccc2c(Br)cccc2c1 [Compound 22] | Yes | Yes | 
O=[N+]([O-])c1ccccc1OCCn1nnc(-c2ccccc2)n1 [Compound 60] | Yes | No | 
O=c1oc2cc(OCc3nnn[nH]3)ccc2cc1-c1ccc2ccccc2c1 [Compound 21] | Yes | Yes | 
O=C(O)CCS(=O)(=O)c1ccc2[nH]c(=O)oc2c1 [Compound 27] | Yes | No | 
B1 |  |  | Synthase activity, Substrate: GDP + ATP, RelTt + IC + tRNA^Val [6]: 12.0 ± 2.0; Synthase activity, Substrate: GDP + ATP, RelTt + IC [6]: 8.5 ± 1.0
B2 |  |  | Synthase activity, Substrate: GDP + ATP, RelTt + IC + tRNA^Val [6]: 8.8 ± 0.69; Synthase activity, Substrate: GDP + ATP, RelTt + IC [6]: 10.9 ± 3.6
B3 |  |  | Synthase activity, Substrate: GDP + ATP, RelTt ([6]; enzyme alone, triplicate): 2.6 ± 0.6; Synthase activity, Substrate: GDP + ATP, RelTt + IC + tRNA^Val [6]: 10.5 ± 1.8; Synthase activity, Substrate: GDP + ATP, RelTt + IC [6]: 8.6 ± 2
B4 |  |  | Synthase activity, Substrate: GDP + ATP, RelTt + IC + tRNA^Val [6]: 5.4 ± 2.1; Synthase activity, Substrate: GDP + ATP, RelTt + IC [6]: 4.5 ± 2.3
